Source: the METLIN SMRT retention time set (Domingo-Almenara et al. 2019)

assay: gradient 5% acetonitrile 3 min, to 50% in 2 min, to 85% in 15 min, held 3 min, 100 µL/min; conditions: column: Zorbax Extend-C18 2.1 x 50 mm; eluents: water / acetonitrile, 0.1% formic acid
In short: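 A Zorbax Extend-C18 column (2.1 × 50 mm, 1.8 μm) run at 100 μL/min with water and acetonitrile, both containing 0.1% formic acid, separated mixtures of ~100 pure standards. The HPLC was coupled to a quadrupole time-of-flight mass spectrometer operated in positive and negative ionization mode, with dead and dwell volumes of 40 μL and 900 μL. Each retention time was taken from a computationally picked adduct peak that was then manually inspected.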

Row | RP-LC retention time [s] | SMILES
1 | 768 | CCOC(=O)c1nc(NCCc2cc(OC)ccc2OC)c2ccccc2n1
2 | 1220 | Cc1ccc(-c2noc(C3CCCN3S(=O)(=O)c3ccc(Br)s3)n2)cc1 (centres undefined)
3 | 674 | Cc1ccc2c(C(=O)NCc3ccccc3Cl)cc(NC(=O)C(C)C)cc2n1
4 | 850 | CCn1cc(C2=CCN(C(=O)NCc3cccc(F)c3)CC2)c2cccnc21
5 | 840 | O=c1n(Cc2c(F)cccc2Cl)nc2c(S(=O)(=O)N3CCCC3)cccn12
6 | 728 | CCNC(=O)NCCC1CCN(S(=O)(=O)c2ccc(F)cc2)CC1
7 | 942 | CCOc1ccc(NC(=O)C(C)C2CCN(C(=O)Nc3ccc(Cl)cc3)CC2)cc1 (centres undefined)
8 | 1140 | CC(C)OCCCNc1nc(Nc2ccc3c(c2)OCO3)c2cnn(-c3ccccc3)c2n1
9 | 738 | Cc1ccc(C)c(NC(=O)C2CCCN2S(C)(=O)=O)c1 (centres undefined)
10 | 1210 | Cc1cccc(S(=O)(=O)N2CCc3nc(-c4ccc(Cl)cc4)ncc3C2)c1
11 | 609 | CC(C)n1ccc(-c2nnc(NC(=O)C3CCCN(S(C)(=O)=O)C3)o2)n1 (centres undefined)
12 | 813 | Cc1cccc(N(C)S(=O)(=O)c2ccc3c(c2)CCCC(=O)N3)c1
13 | 1020 | COc1ccc(N2CCN(c3cc(SCC(=O)Nc4cc(C)ccc4C)ncn3)CC2)cc1
14 | 834 | Cc1nn2c(CNS(=O)(=O)c3ccccc3F)c(-c3ccccc3)nc2s1
15 | 804 | COc1cc(NC(=O)c2c(C)oc3nc(C)nc(N4CCOCC4)c23)cc(OC)c1
16 | 866 | O=C(Cn1c(=O)oc2ccccc21)N1CCCc2ccccc21
17 | 861 | CCn1cnc(S(=O)(=O)N2CCCC(C(=O)Nc3ccc(C)c(Cl)c3)C2)c1 (centres undefined)
18 | 729 | CC1CN(c2ccc(F)cc2)c2nc3c(c(=O)n(CC(=O)O)c(=O)n3C)n2C1 (centres undefined)
19 | 846 | COc1cc(CNC(=O)c2nnc(-c3ccc(S(=O)(=O)N(C)C)cc3)o2)cc(OC)c1
20 | 903 | Cc1ccc(N2CCC(NC(=O)Nc3ccc(F)cc3F)C2=O)cc1C (centres undefined)
21 | 846 | CCn1nccc1C(=O)Nc1cc(-c2cc3cc(OC)ccc3n2CC)[nH]n1
22 | 678 | O=C(NCCCN1CCCC1=O)C1c2ccccc2CC(=O)N1Cc1ccccc1 (centres undefined)
23 | 849 | COCCN1C(=O)CN(Cc2ccc(C)cc2)C(=O)C1c1cccs1 (centres undefined)

Row | RP-LC retention time [s] | SMILES
24 | 645 | Brc1ccc([C@H]2CN3CCSC3=N2)cc1
25 | 1420 | Cc1ccc(-c2nc(C3CCN(S(=O)(=O)c4c(C)cc(C)cc4C)CC3)no2)cc1
26 | 705 | CCOC(=O)C1CCN(c2ncc(C(=O)Nc3ccccc3)c(N)n2)CC1
27 | 1220 | NC(=O)c1cc(Br)cc(C2CCCCC2)c1O
28 | 1210 | COc1ccc(Br)c2c1-c1nc(NC(=O)c3cccc(F)c3)sc1C2
29 | 606 | O=C(NCC1CC(=O)N(c2ccc3c(c2)OCO3)C1)C1CC1 (centres undefined)
30 | 787 | CCSc1ccc(-c2cccc(NC(=O)CC)c2)nn1
31 | 970 | Cc1ccc(-c2nnc(-c3nn(C)c4c3CN(S(=O)(=O)c3ccc(F)c(Cl)c3)CC4)o2)cc1
32 | 1170 | CCc1cc(=O)n(CC(=O)Nc2ccccc2F)c(-c2cccc(F)c2)n1
33 | 1030 | Cc1cc(F)ccc1NC(=O)c1cc(C2CC2)n2nccc2n1
34 | 833 | COc1ccc(C(=O)N2CCN(c3nc(CN4CCOCC4)cs3)CC2)cc1
35 | 1010 | COc1cc(C(=O)Nc2sc3c(c2C(N)=O)CCC(C)C3)cc(OC)c1OC (centres undefined)
36 | 824 | Cc1ccc(NC(=O)CN2C(=O)CCCc3cc(S(=O)(=O)N4CCCC4)ccc32)cc1C
37 | 767 | Cc1cc(-c2csc(Nc3ccc(N(C)C)cc3)n2)ccc1F
38 | 1200 | Cc1ccc(C)c(Nc2nc(-c3ccccc3)cs2)c1
39 | 874 | CCc1ccc(N2C(C)=NS(=O)(=O)c3cccnc32)cc1
40 | 757 | O=C(Nc1ccc(Cl)cc1)C1CCc2nc(N3CCOCC3)ncc2C1 (centres undefined)
41 | 657 | CCCNC(=O)C1CCN(c2ccc(SCC(=O)Nc3ccc(C(C)C)cc3)nn2)CC1
42 | 654 | Cc1cnc(CC2CCN(S(=O)(=O)c3ccc(C#N)cc3)C2)n1C1CC1 (centres undefined)
43 | 861 | Cc1cc(C)cc(NC(=O)N2CCC(n3cnc4ccc(F)cc4c3=O)CC2)c1
44 | 771 | CCOc1ccc(CNS(=O)(=O)c2cc(C(=O)N3CCCC3)n(C)c2C)cc1
45 | 691 | Cc1nc(C)c(C(=O)Nc2ccccc2NC(=O)c2ccccn2)s1
46 | 1110 | Cc1ccc(/C=C/c2nc(-c3ccc4c(c3)oc(=O)n4C)no2)cc1

Row | RP-LC retention time [s] | SMILES
47 | 1130 | CCN(CC)CCn1c(NCc2ccccc2OC)nc2ccccc21
48 | 701 | O=C(CCc1c(-c2ccc(Br)cc2)nc2ccccn12)NCc1ccc(F)cc1
49 | 903 | O=C(Nc1nc2ccc(Cl)cc2s1)C1CCN(C(=O)C2Sc3ccccc3NC2=O)CC1 (centres undefined)
50 | 759 | Cc1noc(-c2nn(C)c3c2CN(C(=O)CC2CCCC2)CC3)n1
51 | 824 | Cc1ccc(CNC(=O)C2CCCN2S(=O)(=O)c2cc3c(cc2C)NC(=O)C(C)O3)cc1 (centres undefined)
52 | 692 | O=C(Nc1ccc(NC(=O)N2CCCC(C(=O)NCC3CC3)C2)cc1)NC1CCCC1 (centres undefined)
53 | 547 | Cc1cc(C)cc(C(=O)N2CCC(c3nc4ccncc4n3C)C2)c1 (centres undefined)
54 | 921 | Cc1ccc(S(=O)(=O)NCCc2cn(CC(C)C)c3ncccc23)cc1
55 | 755 | O=C(CCc1nc2ccccc2s1)N1CCC(c2noc(-c3ccccn3)n2)C1 (centres undefined)
56 | 1210 | COc1ccc(-c2noc(C3(NC(=O)c4ccccc4OC)CCCCC3)n2)cc1
57 | 539 | Cc1cccc(Nc2nc(CC(=O)N3CCC(C(N)=O)CC3)cs2)n1
58 | 646 | Cc1cc(C)nc(Nc2nc(CC(=O)Nc3nc(C)c(C(=O)N(C)C)s3)cs2)n1
59 | 1050 | CCSc1nnc(-c2nn(C)c3c2CN(S(=O)(=O)c2cccc(Cl)c2C)CC3)n1CC
60 | 1050 | CC(C)c1nn2c(S(=O)(=O)NC3CCCC3)c(C(C)C)nc2s1
61 | 617 | CCOc1cccc(CN2C[C@@H]3C(=O)N(CCCN4CCCC4=O)C(=O)[C@@H]3C2)c1
62 | 912 | COCc1cc(=O)n(Cc2cc(C)ccc2C)c(N2CCCC2)n1
63 | 761 | CCOc1ccc(S(=O)(=O)N2CCC(C(=O)NC)CC2)cc1C
64 | 1110 | O=C(Nc1ccc(F)c(F)c1)C1CCN(c2nccnc2Sc2ccccc2)CC1
65 | 650 | CN(CCCNC(=O)C1CCN(c2nc3ccccc3n(C)c2=O)CC1)C1CCCCC1
66 | 556 | CCN(CC)CCCNC(=O)C1CCCN(c2nnc(C)c3c(C)n(-c4ccccc4)nc23)C1 (centres undefined)
67 | 762 | COCC(=O)N(C1CCOCC1)C1CCN(S(=O)(=O)c2cccc(C)c2)CC1
68 | 644 | CCn1nccc1C(=O)Nc1ccc2c(c1)CCC(=O)N2C
69 | 647 | CCN1CCN(C(=O)CC2CCN(S(=O)(=O)c3ccc(Cl)s3)CC2)CC1

Row | RP-LC retention time [s] | SMILES
70 | 577 | Cc1nnc(NC(=O)CSc2cc(N3CCCC3)ncn2)s1
71 | 720 | CCN(c1cccc(C)c1)S(=O)(=O)c1cc2n(c1)CCCNC2=O
72 | 892 | Cc1cc(N2C=C(C(=O)N3CCOCC3)S(=O)(=O)c3ccc(F)cc32)ccc1Br
73 | 699 | CCN(CC)C(=O)c1ccc(-c2nc3cc(NS(=O)(=O)c4ccc(F)cc4)ccc3n2C)cc1
74 | 1120 | C=CCN1C(=O)COc2ccc(-c3csc(NC(=O)c4cccc(Br)c4)n3)cc21
75 | 811 | COC(=O)c1ccccc1NC(=O)CCCn1cnc(-c2ccccc2)cc1=O
76 | 853 | CC1=C(c2ccc(C)c(C)c2)S(=O)(=O)N=C1N1CCCN(C(=O)NCC(C)C)CC1
77 | 615 | O=C(C1CCCN(c2ncnc3c2nc2n3CCCCC2)C1)N1CCN(Cc2ccccc2)CC1 (centres undefined)
78 | 770 | COC(=O)c1ccc2c(=O)n(-c3cc(C)cc(C)c3)c(N3CCN(Cc4ccccc4)CC3)nc2c1
79 | 813 | Cc1ccc(C(=O)N2CCCCCCNC(=O)[C@@H]3CCCC[C@@H]32)s1
80 | 752 | COc1ccc(N2CC(c3nc(-c4ccncc4)no3)CC2=O)cc1Cl (centres undefined)
81 | 1320 | Cc1ccccc1-c1nc(-c2ccc(N3CCSCC3)nc2)no1
82 | 711 | CC1CCN(C(=O)c2nc3ccccn3c2-c2ccsc2)CC1
83 | 570 | O=C(Cc1cn2cc(Br)ccc2n1)N1CCSCC1
84 | 1040 | Cc1sc(NC(=O)c2ccc(Br)cc2)nc1-c1ccc2c(c1)NC(=O)C(C)O2 (centres undefined)
85 | 823 | CCOC(=O)c1c(C)[nH]c(CCC(=O)NC2CCCCC2)c1C
86 | 1050 | COc1cccc(Cn2cnc3c(-c4cccc(F)c4)csc3c2=O)c1
87 | 586 | Cc1ccc(NC(=O)C(C)Oc2cc(C(F)(F)F)c3c(C)nn(C)c3n2)cc1C (centres undefined)
88 | 705 | CCn1c(C(=O)NCCCN2CCOCC2)cc2c(-c3cccs3)nn(-c3ccccc3)c21
89 | 786 | O=C(CSc1cccc2cccnc12)NCCc1ccc(Cl)cc1
